Results from patent US9198942B1, “Method of preparing bioactive compound from solid-state cultivated Antrodia cinnamomea mycelium for anti-metastasis against lung cancer cells” (TAIWAN LEADER BIOTECH CORP., priority 2014, dated 2015).

Assays:
Type in all cases: cell-based, human
A549 lung cancer cells [1] = test: MTT survival rate of A549 cells; details: A549, 0~40 μM, 24 hr
Procedure: (§1) The present invention selects a human lung cancer cell, A549, for exploring lung cancer cell metastasis. For culturing A549, the A549 cells grown in 75 T flask are replanted in a 10 square-centimeter (cm^2) dish at a seeding density of 2×10^5 cells per square-centimeter (cells/cm^2) to be cultured at 37 Celsius degrees (° C.) in an incubator having 5% carbon dioxide (CO2). The culture medium used is Ham's F12 (which is recommended by Bioresources Collection and Research Center (BCRC), Taiwan, and American Type Culture Center (ATCC)) and is added with extra 10% fetal bovine serum. State-of-Use 2: Preparing Extracts of Solid-State Cultivated Antrodia cinnamomea Mycelium
At first, A549 cells are cultured as described in state-of-use 1. After being washed with tripsin, the cells are replanted for 24 hr in a dish having 24 wells at a seeding density of 2×10^5 cells/cm^2. In Table 1, Leader 1 having a concentration of 0, 5, 10, or 40 μM is cultured for 24 hr to be applied to A549, where Leader 1 having 0 μM is added with DMSO to be used as a control group. […] Then, the cell membrane and the blue-violet crystals are dissolved with DMSO to acquire light-absorbance rates with a wavelength of 570 nm for forming a statistical diagram by using sigma plot 10.0.

A549 lung cancer cells [2] = test: Wound healing of A549 cells; details: A549, 5-40 μM, observed at 0, 12, 24 or 48 hr; especially 40 μM
Procedure: as §1
At first, lung cancer cells A549 are cultured as described in state-of-use 1. After being washed down with tripsin, the cells are replanted in a 12-well plate at a seeding density of […] for 24 hr for attachment. Then, a wound line is made in each well. After floating part of the cells are removed by being slight-washed with PBS, the cells are added to culture media having concentrations of 0, 5, 10, 20 and 40 μM of Leader 1 for observation at time points of 0, 12, 24 or 48 hr to be photographed as records, where a medium dosed with 0 μM of DMSO is used as a control group.

A549 lung cancer cells [3] = test: Transwell migration of A549 cells; details: A549, 5-40 μM for 24 hr, with or without TNF-α induction, 12 or 24 hr; especially 40 μM
Procedure: 24-well transwell kits (Millipore Co.) are used for analyzing lung cancer cell migration.
At first, lung cancer cells A549 are cultured as described in state-of-use 1. After being washed down with tripsin, the cells are replanted in a 12-well plate at a seeding density of 2×10^5 cells/cm^2 for 24 hr for attachment. After being added into media having concentrations of 0, 5, 10 and 40 μM of Leader 1 for 24 hr, the cells are rinsed with PBS and, then, dropped down with tripsin. The cells are loaded into centrifuge tubes for centrifugal rotation at a speed of 1280 rpm for 3 min to remove supernatant. Residual serum is removed by slow-washing with PBS. Then, centrifugal rotations are processed at a speed of 1280 rpm for 3 min. The cells are added into culture media at a density of 2×10^5 cells/cm^2, where the media are located at an upper layer of the kit and injected with a 200 μl solution containing only 0.1% fetal bovine serum. Another media are located at a lower layer of the kit and containing 20% fetal bovine serum (induced or not induced with TNF-α). The kit having the two layers of media is put in an incubator to be observed after 12 or 24 hr.
(§2) The kit is soaked in methanol and stayed still for 20 min to be dried afterwards. Then, the kit is soaked in Gimsa to be dyed for 20 min. […]

A549 lung cancer cells [4] = test: Matrigel transwell invasion of A549 cells; details: A549, 5-40 μM for 24 hr, 12 or 24 hr, especially 40 μM
Procedure: The 24-well kit is used for analyzing lung cancer cell invasion. The kit is prepared by injecting Matrigel (3 mg/ml-well, BD science) into the upper layer of the kit, to be placed in an incubator for 24 hr and, then, process solidification.
At first, lung cancer cells A549 are cultured as described in state-of-use 1. After being washed down with tripsin, the cells are replanted in a 6-well plate at a seeding density of 2×10^5 cells/cm^2 for 24 hr for attachment. After being added into media having concentrations of 0, 5, 10 and 40 μM of Leader 1 for 24 hr, the cells are rinsed with PBS and, then, dropped down with tripsin. The cells are loaded into centrifuge tubes for centrifugal rotation at a speed of 1280 rpm for 3 min to remove supernatant. Residual serum is slowly removed by washing with PBS. Then, centrifugal rotations are processed at a speed of 1280 rpm for 3 min. The cells are added at a density of 2×10^5 cells/cm^2 into culture media, where the media are located at the upper layer and injected with a 200 μl solution containing only 0.1% fetal bovine serum. Another media are located at the lower layer and contain 20% fetal bovine serum. The kit is put in an incubator to be observed after 12 or 24 hr.
as §2

[5] = test system: matrix metalloproteinase (MMP-2, MMP-9); test: Gelatin zymography of gelatinase activity in A549 cells; details: A549, 5-40 μM for 24 hr; especially 40 μM
Procedure: Electrophoresis is used to detect hydrolytic enzymes. Gelatin zymography is used to analyze activities of gelatinases (MMP-2, MMP-9) in matrix metalloproteinase (MMP) of lung cancer cells.
(§3) At first, lung cancer cells A549 are cultured as described in state-of-use 1. After being washed down with tripsin, the cells are replanted in a 12-well plate at a seeding density of 2×10^5 cells/cm^2 for 24 hr for attachment. Then, the kit is rinsed with PBS two times. After being added into media having concentrations of 0, 5, 10 and 40 μM of Leader 1 for 24 hr, the cells are added into media having 1% fetal bovine serum for 24 hr for obtaining culture media containing the cells. The kit is put into an Eppendorf centrifuge tube for centrifugal rotation at a 1250 rpm speed for 10 min. Then, the supernatant is taken out to be stored at −20° C.
An equivalent amount of the supernatant is added into 8%-gradient colloidal wells of gel (SDS-PAGE, containing 1 mg/ml gelatin) with a 6-times MMP dye. A running buffer is added and reaction stops after 45 kD of a MMP marker is resolved into the gel with a current of 80 V and 300 mA.
(§4) The gel is taken out for reaction in a zymography renaturing buffer at a 35 rpm speed. The reaction is done for 2 times at a room temperature and it takes 30 min for each time. […]

[6] = test system: urokinase-type plasminogen activator (uPA); test: Casein-plasminogen zymography of uPA activity in A549 cells; details: A549, 5-40 μM for 24 hr; especially 40 μM
Procedure: Electrophoresis is used for detecting hydrolytic enzymes. The part regarding plasminogen in casein-zymography is used for analyzing activity of urokinase-type plasminogen activator (uPA) of lung cancer cells, where uPA would decompose plasminogen into plasmin.
as §3
An equivalent amount of the supernatant is added into 8%-gradient colloidal wells of gel (containing 15 μl/ml plasminogen and 1 mg/ml gelatin) with a 6-times MMP dye. A running buffer is added and reaction stops after 45 kD of a MMP marker is resolved into the gel with a current of 80 V and 300 mA.
as §4

[7] = test system: related proteases and proteins that promote metastasis (p-Akt, E-cadherin, MMP-2,9, TIMP-1); test: Western blot of metastasis-related proteases and proteins in lung cancer cells; details: β-actin as control
Procedure: After total proteins of the cell are obtained, an equivalent amount of proteins are added to 8-10% gradient electrophoresis gel wells at a current of 80 V and 300 mA for 240 min for separating the total proteins. The total proteins sorted according to their sizes are blotted on a polyvinylidene difluoride (PVDF) membrane at a condition using a 100 V current for 2 hr. Then, the PVDF membrane is reacted with a blocking buffer for 1 hr. Therein, the blocking buffer contains 10% w/v skim milk powder in a TBS-T buffer, and the TBS-T buffer contains a TBS buffer having 0.1% Tween 20.
Thereafter, the PVDF membrane is immersed in an antibody solution of actin (Cell signaling Co.); an antibody solution of p-Akt or protein kinase B (1:1000, Cell signaling Co.); an antibody solution of E-cadherin (1:1000, Cell signaling Co.); an antibody solution of MMP-2,9 in matrix metalloproteinase (1:1000, Santa Cruz Co.); and an antibody solution of TIMP-1 (1:1000, Cell signaling Co.). […]
Then, the PVDF membrane is immersed in an anti-mouse secondary antibody solution having horseradish peroxidase and an anti-rabbit secondary antibody solution for reaction at a room temperature for 1˜2 hr. […] Then, an enhanced chemiluminescene (ECL) regent is used to detect fluorescence intensity, where β-actin protein is used as a control group of expression for statistical mapping with sigma plot 10.0.

## COc1cc(C)c(OC)c(OC)c1O [Leader 1, 2,3,6-trimethoxy-4-methylphenol]
A549 lung cancer cells [1]
  survival rate of lung cancer cells (cytotoxicity): no cytotoxicity to lung cancer cells
A549 lung cancer cells [2]
  suppressing wound healing of lung cancer cells: shows its ability on suppressing wound healing of lung cancer cells
A549 lung cancer cells [3]
  suppressing migration of lung cancer cells: shows activity on suppressing migration of lung cancer cells
A549 lung cancer cells [4]
  suppressing invasion of lung cancer cells: shows ability on suppressing invasion of lung cancer cells
[5]
  suppressing matrix metalloproteinase (MMP-2, MMP-9) activity of lung cancer cells: shows ability on suppressing matrix metalloproteinase (MMP-2, MMP-9) activity of lung cancer cells
[6]
  suppressing plasminogen activator of lung cancer cells: shows activity on suppressing plasminogen activator of lung cancer cells
[7]
  suppressing related proteases and proteins that promote metastasis of lung cancer cells: shows ability on suppressing related proteases and proteins that promote metastasis of lung cancer cells
